Literature values, collected in patent publication US20160375049A1, “COMPOSITIONS” (GLOBALACORN LTD, priority 2013, published 2016).

Columns and labels:
[1] = target: T1, P2X3 receptors (Homo sapiens, UniProt P56373)
T1 sequence (P56373 1-397): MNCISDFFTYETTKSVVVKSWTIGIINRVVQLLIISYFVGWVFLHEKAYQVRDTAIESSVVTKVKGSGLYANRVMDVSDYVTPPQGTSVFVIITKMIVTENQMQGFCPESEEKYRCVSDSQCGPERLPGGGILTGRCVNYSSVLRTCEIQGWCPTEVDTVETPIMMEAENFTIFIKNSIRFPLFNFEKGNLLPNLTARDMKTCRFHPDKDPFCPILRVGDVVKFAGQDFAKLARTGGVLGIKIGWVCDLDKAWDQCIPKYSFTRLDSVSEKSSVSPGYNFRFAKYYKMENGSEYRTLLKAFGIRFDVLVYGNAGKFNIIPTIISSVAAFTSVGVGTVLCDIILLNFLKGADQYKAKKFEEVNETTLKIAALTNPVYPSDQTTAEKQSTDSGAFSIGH

[2] = tested on: inflammatory and neuropathic pain models; settings: systemic administration
[3] = tested on: persistent pain; settings: in vivo
[4] = tested on: acute noxious stimulation; settings: in vivo
[5] = tested on: nociception; settings: in vivo

SMILES | binding to P2X3 receptors, concentration range [1] | nociception in inflammatory and neuropathic pain models [2] | persistent pain in formalin and acetic acid-induced abdominal constriction tests [3] | activity in models of acute noxious stimulation [4] | anti-nociception in animal models [5]
O=C(O)c1cc(C(=O)O)c(C(=O)N(Cc2cccc(Oc3ccccc3)c2)[C@H]2CCCc3ccccc32)cc1C(=O)O [A-317491] | micromolar range | effectively reduced nociception | effectively blocked persistent pain | generally inactive | 
COc1cc(Cc2cnc(N)nc2N)c(C(C)C)cc1OC [RO-3] |  |  |  |  | induce anti-nociception
